Data reported in ChEMBL document CHEMBL1151464 (2008).

Key:
Format in all cases: functional
Acinetobacter baumannii [1] = assay: Antibacterial activity against Acinetobacter baumannii isolate 910 after 24 hrs by CLSI microdilution method
Pseudomonas aeruginosa [2] = assay: Antibacterial activity against Pseudomonas aeruginosa isolate 334 after 24 hrs by CLSI microdilution method
Acinetobacter baumannii [3] = assay: Antibacterial activity against Acinetobacter baumannii isolate 885 after 24 hrs by CLSI microdilution method
Acinetobacter baumannii [4] = assay: Antibacterial activity against Acinetobacter baumannii isolate 892 after 24 hrs by CLSI microdilution method
Acinetobacter baumannii [5] = assay: Antibacterial activity against Acinetobacter baumannii isolate 917 after 24 hrs by CLSI microdilution method
Pseudomonas aeruginosa [6] = assay: Antibacterial activity against Pseudomonas aeruginosa isolate 345 after 24 hrs by CLSI microdilution method
Pseudomonas aeruginosa [7] = assay: Antibacterial activity against Pseudomonas aeruginosa isolate 367 after 24 hrs by CLSI microdilution method
Acinetobacter baumannii [8] = assay: Antibacterial activity against Acinetobacter baumannii isolate 882 after 24 hrs by CLSI microdilution method
Pseudomonas aeruginosa [9] = assay: Antibacterial activity against Pseudomonas aeruginosa isolate 322 after 24 hrs by CLSI microdilution method
Acinetobacter baumannii [10] = assay: Antibacterial activity against Acinetobacter baumannii isolate 919 after 24 hrs by CLSI microdilution method
Pseudomonas aeruginosa [11] = assay: Antibacterial activity against Pseudomonas aeruginosa isolate 350 after 24 hrs by CLSI microdilution method
Pseudomonas aeruginosa [12] = assay: Antibacterial activity against Pseudomonas aeruginosa isolate 323 after 24 hrs by CLSI microdilution method
Pseudomonas aeruginosa [13] = assay: Antibacterial activity against Pseudomonas aeruginosa isolate 352 after 24 hrs by CLSI microdilution method
Acinetobacter baumannii [14] = assay: Antibacterial activity against Acinetobacter baumannii isolate 889 after 24 hrs by CLSI microdilution method
Pseudomonas aeruginosa [15] = assay: Antibacterial activity against Pseudomonas aeruginosa isolate 370 after 24 hrs by CLSI microdilution method
Acinetobacter baumannii [16] = assay: Antibacterial activity against Acinetobacter baumannii isolate 893 after 24 hrs by CLSI microdilution method
Pseudomonas aeruginosa [17] = assay: Antibacterial activity against Pseudomonas aeruginosa isolate 361 after 24 hrs by CLSI microdilution method
Acinetobacter baumannii [18] = assay: Antibacterial activity against Acinetobacter baumannii isolate 887 after 24 hrs by CLSI microdilution method
Pseudomonas aeruginosa [19] = assay: Antibacterial activity against Pseudomonas aeruginosa isolate 353 after 24 hrs by CLSI microdilution method
Acinetobacter baumannii [20] = assay: Antibacterial activity against Acinetobacter baumannii isolate 925 after 24 hrs by CLSI microdilution method
Acinetobacter baumannii [21] = assay: Antibacterial activity against Acinetobacter baumannii isolate 926 after 24 hrs by CLSI microdilution method
Pseudomonas aeruginosa [22] = assay: Antibacterial activity against Pseudomonas aeruginosa isolate 324 after 24 hrs by CLSI microdilution method
Pseudomonas aeruginosa [23] = assay: Antibacterial activity against Pseudomonas aeruginosa isolate 349 after 24 hrs by CLSI microdilution method
Pseudomonas aeruginosa [24] = assay: Antibacterial activity against Pseudomonas aeruginosa isolate 329 after 24 hrs by CLSI microdilution method
Pseudomonas aeruginosa [25] = assay: Antibacterial activity against Pseudomonas aeruginosa isolate 368 after 24 hrs by CLSI microdilution method
Acinetobacter baumannii [26] = assay: Antibacterial activity against Acinetobacter baumannii isolate 900 after 24 hrs by CLSI microdilution method
Pseudomonas aeruginosa [27] = assay: Antibacterial activity against Pseudomonas aeruginosa isolate 375 after 24 hrs by CLSI microdilution method
Pseudomonas aeruginosa [28] = assay: Antibacterial activity against Pseudomonas aeruginosa isolate 376 after 24 hrs by CLSI microdilution method
Acinetobacter baumannii [29] = assay: Antibacterial activity against Acinetobacter baumannii isolate 884 after 24 hrs by CLSI microdilution method
Pseudomonas aeruginosa [30] = assay: Antibacterial activity against Pseudomonas aeruginosa isolate 319 after 24 hrs by CLSI microdilution method
Acinetobacter baumannii [31] = assay: Antibacterial activity against Acinetobacter baumannii isolate 905 after 24 hrs by CLSI microdilution method
Pseudomonas aeruginosa [32] = assay: Antibacterial activity against Pseudomonas aeruginosa isolate 359 after 24 hrs by CLSI microdilution method
Acinetobacter baumannii [33] = assay: Antibacterial activity against Acinetobacter baumannii isolate 904 after 24 hrs by CLSI microdilution method
Pseudomonas aeruginosa [34] = assay: Antibacterial activity against Pseudomonas aeruginosa isolate 339 after 24 hrs by CLSI microdilution method
Acinetobacter baumannii [35] = assay: Antibacterial activity against Acinetobacter baumannii isolate 912 after 24 hrs by CLSI microdilution method
Acinetobacter baumannii [36] = assay: Antibacterial activity against Acinetobacter baumannii isolate 922 after 24 hrs by CLSI microdilution method
Acinetobacter baumannii [37] = assay: Antibacterial activity against Acinetobacter baumannii isolate 907 after 24 hrs by CLSI microdilution method
Pseudomonas aeruginosa [38] = assay: Antibacterial activity against Pseudomonas aeruginosa isolate 344 after 24 hrs by CLSI microdilution method
Pseudomonas aeruginosa [39] = assay: Antibacterial activity against Pseudomonas aeruginosa isolate 364 after 24 hrs by CLSI microdilution method
Acinetobacter baumannii [40] = assay: Antibacterial activity against Acinetobacter baumannii isolate 894 after 24 hrs by CLSI microdilution method
Pseudomonas aeruginosa [41] = assay: Antibacterial activity against Pseudomonas aeruginosa isolate 373 after 24 hrs by CLSI microdilution method
Pseudomonas aeruginosa [42] = assay: Antibacterial activity against Pseudomonas aeruginosa isolate 335 after 24 hrs by CLSI microdilution method
Acinetobacter baumannii [43] = assay: Antibacterial activity against Acinetobacter baumannii isolate 895 after 24 hrs by CLSI microdilution method
Acinetobacter baumannii [44] = assay: Antibacterial activity against Acinetobacter baumannii isolate 916 after 24 hrs by CLSI microdilution method
Acinetobacter baumannii [45] = assay: Antibacterial activity against Acinetobacter baumannii isolate 899 after 24 hrs by CLSI microdilution method
Acinetobacter baumannii [46] = assay: Antibacterial activity against Acinetobacter baumannii isolate 890 after 24 hrs by CLSI microdilution method
Acinetobacter baumannii [47] = assay: Antibacterial activity against Acinetobacter baumannii isolate 908 after 24 hrs by CLSI microdilution method
Pseudomonas aeruginosa [48] = assay: Antibacterial activity against Pseudomonas aeruginosa isolate 331 after 24 hrs by CLSI microdilution method
Acinetobacter baumannii [49] = assay: Antibacterial activity against Acinetobacter baumannii isolate 934 after 24 hrs by CLSI microdilution method
Pseudomonas aeruginosa [50] = assay: Antibacterial activity against Pseudomonas aeruginosa isolate 357 after 24 hrs by CLSI microdilution method
Pseudomonas aeruginosa [51] = assay: Antibacterial activity against Pseudomonas aeruginosa isolate 372 after 24 hrs by CLSI microdilution method
Acinetobacter baumannii [52] = assay: Antibacterial activity against Acinetobacter baumannii isolate 896 after 24 hrs by CLSI microdilution method
Pseudomonas aeruginosa [53] = assay: Antibacterial activity against Pseudomonas aeruginosa isolate 365 after 24 hrs by CLSI microdilution method
Pseudomonas aeruginosa [54] = assay: Antibacterial activity against Pseudomonas aeruginosa isolate 363 after 24 hrs by CLSI microdilution method
Pseudomonas aeruginosa [55] = assay: Antibacterial activity against Pseudomonas aeruginosa isolate 326 after 24 hrs by CLSI microdilution method
Acinetobacter baumannii [56] = assay: Antibacterial activity against Acinetobacter baumannii isolate 921 after 24 hrs by CLSI microdilution method
Acinetobacter baumannii [57] = assay: Antibacterial activity against Acinetobacter baumannii isolate 888 after 24 hrs by CLSI microdilution method
Pseudomonas aeruginosa [58] = assay: Antibacterial activity against Pseudomonas aeruginosa isolate 356 after 24 hrs by CLSI microdilution method
Pseudomonas aeruginosa [59] = assay: Antibacterial activity against Pseudomonas aeruginosa isolate 355 after 24 hrs by CLSI microdilution method
Pseudomonas aeruginosa [60] = assay: Antibacterial activity against Pseudomonas aeruginosa isolate 346 after 24 hrs by CLSI microdilution method

Measured: MIC

COLISTIN
4 µg/mL: Acinetobacter baumannii [5] | Pseudomonas aeruginosa [13] | Acinetobacter baumannii [31] | Acinetobacter baumannii [36] | Acinetobacter baumannii [57]
0.5 µg/mL: Pseudomonas aeruginosa [7] | Pseudomonas aeruginosa [9] | Acinetobacter baumannii [10] | Acinetobacter baumannii [16] | Pseudomonas aeruginosa [27] | Pseudomonas aeruginosa [32] | Acinetobacter baumannii [35] | Pseudomonas aeruginosa [38] | Acinetobacter baumannii [47] | Pseudomonas aeruginosa [48]
8 µg/mL: Acinetobacter baumannii [49]
1 µg/mL: Pseudomonas aeruginosa [2] | Pseudomonas aeruginosa [6] | Acinetobacter baumannii [8] | Pseudomonas aeruginosa [11] | Pseudomonas aeruginosa [17] | Pseudomonas aeruginosa [23] | Pseudomonas aeruginosa [24] | Pseudomonas aeruginosa [34] | Acinetobacter baumannii [37] | Pseudomonas aeruginosa [39] | Acinetobacter baumannii [40] | Pseudomonas aeruginosa [41] | Pseudomonas aeruginosa [42] | Pseudomonas aeruginosa [51] | Pseudomonas aeruginosa [55] | Acinetobacter baumannii [56] | Pseudomonas aeruginosa [58] | Pseudomonas aeruginosa [59]
32 µg/mL: Acinetobacter baumannii [45]
0.12 µg/mL: Acinetobacter baumannii [44]
16 µg/mL: Acinetobacter baumannii [4] | Acinetobacter baumannii [14] | Acinetobacter baumannii [18] | Acinetobacter baumannii [20] | Acinetobacter baumannii [33]
2 µg/mL: Acinetobacter baumannii [3] | Pseudomonas aeruginosa [15] | Acinetobacter baumannii [21] | Pseudomonas aeruginosa [22] | Pseudomonas aeruginosa [25] | Acinetobacter baumannii [26] | Acinetobacter baumannii [29] | Pseudomonas aeruginosa [30] | Acinetobacter baumannii [43] | Acinetobacter baumannii [46] | Pseudomonas aeruginosa [50] | Acinetobacter baumannii [52] | Pseudomonas aeruginosa [53] | Pseudomonas aeruginosa [60]
0.25 µg/mL: Acinetobacter baumannii [1] | Pseudomonas aeruginosa [12] | Pseudomonas aeruginosa [19] | Pseudomonas aeruginosa [28] | Pseudomonas aeruginosa [54]

C[C@@H](O)[C@H]1C(=O)N2C(C(=O)O)=C(S[C@@H]3CN[C@H](C(=O)N(C)C)C3)[C@H](C)[C@H]12 [MEROPENEM]
0.25 µg/mL: Pseudomonas aeruginosa [7]; isolate 367, 24 h | Pseudomonas aeruginosa [17]; isolate 361, 24 h | Pseudomonas aeruginosa [22]; isolate 324, 24 h | Pseudomonas aeruginosa [25]; isolate 368, 24 h | Pseudomonas aeruginosa [59]; isolate 355, 24 h
2 µg/mL: Pseudomonas aeruginosa [9]; isolate 322, 24 h | Pseudomonas aeruginosa [11]; isolate 350, 24 h | Pseudomonas aeruginosa [13]; isolate 352, 24 h | Acinetobacter baumannii [16]; isolate 893, 24 h | Pseudomonas aeruginosa [19]; isolate 353, 24 h | Pseudomonas aeruginosa [23]; isolate 349, 24 h | Pseudomonas aeruginosa [30]; isolate 319, 24 h | Acinetobacter baumannii [33]; isolate 904, 24 h | Acinetobacter baumannii [40]; isolate 894, 24 h | Pseudomonas aeruginosa [41]; isolate 373, 24 h | Acinetobacter baumannii [47]; isolate 908, 24 h | Acinetobacter baumannii [52]; isolate 896, 24 h | Pseudomonas aeruginosa [58]; isolate 356, 24 h
4 µg/mL: Acinetobacter baumannii [1]; isolate 910, 24 h | Acinetobacter baumannii [35]; isolate 912, 24 h | Pseudomonas aeruginosa [42]; isolate 335, 24 h
8 µg/mL: Acinetobacter baumannii [3]; isolate 885, 24 h | Acinetobacter baumannii [29]; isolate 884, 24 h | Acinetobacter baumannii [43]; isolate 895, 24 h | Acinetobacter baumannii [44]; isolate 916, 24 h
0.12 µg/mL: Pseudomonas aeruginosa [32]; isolate 359, 24 h | Pseudomonas aeruginosa [39]; isolate 364, 24 h | Pseudomonas aeruginosa [48]; isolate 331, 24 h
16 µg/mL: Pseudomonas aeruginosa [28]; isolate 376, 24 h | Pseudomonas aeruginosa [51]; isolate 372, 24 h | Pseudomonas aeruginosa [55]; isolate 326, 24 h
0.5 µg/mL: Acinetobacter baumannii [5]; isolate 917, 24 h | Pseudomonas aeruginosa [24]; isolate 329, 24 h | Acinetobacter baumannii [26]; isolate 900, 24 h | Pseudomonas aeruginosa [27]; isolate 375, 24 h | Acinetobacter baumannii [31]; isolate 905, 24 h | Pseudomonas aeruginosa [34]; isolate 339, 24 h | Acinetobacter baumannii [37]; isolate 907, 24 h | Pseudomonas aeruginosa [38]; isolate 344, 24 h | Pseudomonas aeruginosa [50]; isolate 357, 24 h
1 µg/mL: Pseudomonas aeruginosa [2]; isolate 334, 24 h | Pseudomonas aeruginosa [6]; isolate 345, 24 h | Acinetobacter baumannii [8]; isolate 882, 24 h | Acinetobacter baumannii [10]; isolate 919, 24 h | Pseudomonas aeruginosa [12]; isolate 323, 24 h | Acinetobacter baumannii [14]; isolate 889, 24 h | Pseudomonas aeruginosa [15]; isolate 370, 24 h | Acinetobacter baumannii [18]; isolate 887, 24 h | Acinetobacter baumannii [20]; isolate 925, 24 h | Acinetobacter baumannii [36]; isolate 922, 24 h | Acinetobacter baumannii [46]; isolate 890, 24 h | Pseudomonas aeruginosa [53]; isolate 365, 24 h | Pseudomonas aeruginosa [54]; isolate 363, 24 h | Acinetobacter baumannii [56]; isolate 921, 24 h | Acinetobacter baumannii [57]; isolate 888, 24 h | Pseudomonas aeruginosa [60]; isolate 346, 24 h
32 µg/mL: Acinetobacter baumannii [4]; isolate 892, 24 h | Acinetobacter baumannii [21]; isolate 926, 24 h | Acinetobacter baumannii [45]; isolate 899, 24 h | Acinetobacter baumannii [49]; isolate 934, 24 h
